Columns and labels:
[1] = tested on: pCHK1 (S345) in Colo320 DM cells; assay: Alphalisa assay, detection of pCHK1 (S345) in Colo320 DM cells; type: cell-based, human; details: Homo sapiens, COLO 320DM, compound overnight (approximately 16 hours)
Summary of the method: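 Colo320 DM cells plated overnight, then exposed to compound for about 16 h at 37 °C (DMSO <0.5%). Cells lysed and phospho-CHK1 (S345) quantified by AlphaLisa SureFire with sequential 60 min acceptor and donor incubations at room temperature.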

RNR (RNR1:RNR2 1:1) = target: T1, RNR (RNR1:RNR2 1:1) (Homo sapiens, UniProt P23921); assay: RNR enzyme activity, rapid-fire mass spectrometry (RF/MS) assay; type: biochemical; details: [RNR] 50 nM, 1:1 RNR1:RNR2; CDP 5 μM; ATP 1 mM; 37° C., 45 min; compounds screened up to 50 μM
T1 sequence (P23921 1-792): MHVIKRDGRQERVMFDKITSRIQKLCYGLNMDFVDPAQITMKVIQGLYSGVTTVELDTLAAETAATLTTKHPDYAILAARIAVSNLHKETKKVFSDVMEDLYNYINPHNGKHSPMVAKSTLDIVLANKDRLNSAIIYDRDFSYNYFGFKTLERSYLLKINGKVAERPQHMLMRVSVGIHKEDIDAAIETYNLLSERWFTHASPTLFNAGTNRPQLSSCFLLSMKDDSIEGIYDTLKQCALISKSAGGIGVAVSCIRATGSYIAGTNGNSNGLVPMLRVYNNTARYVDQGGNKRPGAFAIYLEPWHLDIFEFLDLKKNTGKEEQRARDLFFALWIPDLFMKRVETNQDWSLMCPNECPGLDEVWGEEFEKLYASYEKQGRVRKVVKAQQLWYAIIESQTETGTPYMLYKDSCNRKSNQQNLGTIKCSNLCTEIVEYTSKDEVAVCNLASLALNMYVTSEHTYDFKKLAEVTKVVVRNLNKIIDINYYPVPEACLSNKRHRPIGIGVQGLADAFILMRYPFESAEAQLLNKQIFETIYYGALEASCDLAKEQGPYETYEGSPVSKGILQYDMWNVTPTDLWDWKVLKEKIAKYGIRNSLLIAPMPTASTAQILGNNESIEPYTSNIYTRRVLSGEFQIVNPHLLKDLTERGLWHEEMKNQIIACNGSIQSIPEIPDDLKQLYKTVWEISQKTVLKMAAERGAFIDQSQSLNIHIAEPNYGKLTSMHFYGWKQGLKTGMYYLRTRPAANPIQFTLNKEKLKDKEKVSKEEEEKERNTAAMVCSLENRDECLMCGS
Summary of the method: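 Human RNR (50 nM final, RNR1:RNR2 1:1) pre-incubated 15 min at room temperature, then reacted 45 min at 37 °C with 5 μM CDP and 1 mM ATP, no NADPH. Reaction quenched with 6% HCOOH; product quantified by rapid-fire mass spectrometry.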

IC50 [1] [nM]	IC50 (RNR (RNR1:RNR2 1:1)) [nM]	Compound
≤ 1000	< 20	Cc1ccc(F)c([C@@H](C)[C@@H](c2n[nH]c(=O)o2)N2CN(C[C@@H]3CCCO3)c3cc(Cl)ccc3S2(=O)=O)c1C [Example 62, 5-((1S,2R)-1-(6-chloro-1,1-dioxido-4-(((S)-tetrahydrofuran-2-yl)methyl)-3,4-dihydro-2H-benzo[e][1,2,4]thiadiazin-2-yl)-2-(6-fluoro-2,3-dimethylphenyl)propyl)-1,3,4-oxadiazol-2 (3H)-one]
≤ 1000	< 20	COCCN1CN([C@H](c2n[nH]c(=O)o2)[C@H](C)c2c(F)ccc(C)c2C)S(=O)(=O)c2ccc(Cl)nc21 [Example 63, 5-((1S,2R)-1-(6-chloro-4-(2-methoxyethyl)-1,1-dioxido-3,4-dihydro-2H-pyrido[2,3-e][1,2,4]thiadiazin-2-yl)-2-(6-fluoro-2,3-dimethylphenyl)propyl)-1,3,4-oxadiazol-2 (3H)-one]
≤ 1000	20 to 100	CC(=O)c1c(Cl)ccc2c1N(C)CN([C@H](c1n[nH]c(=O)o1)[C@H](C)c1c(F)ccc(C)c1C)S2(=O)=O [Example 64, 5-((1S,2R)-1-(5-acetyl-6-chloro-4-methyl-1,1-dioxido-3,4-dihydro-2H-benzo[e][1,2,4]thiadiazin-2-yl)-2-(6-fluoro-2,3-dimethylphenyl)propyl)-1,3,4-oxadiazol-2 (3H)-one]
≤ 1000	< 20	Cc1ccc(F)c([C@@H](C)[C@@H](c2n[nH]c(=O)o2)N2CN(C3CN(C)C3)c3cc(Cl)ccc3S2(=O)=O)c1C [Example 65, 5-((1S,2R)-1-(6-chloro-4-(1-methylazetidin-3-yl)-1,1-dioxido-3,4-dihydro-2H-benzo[e][1,2,4]thiadiazin-2-yl)-2-(6-fluoro-2,3-dimethylphenyl)propyl)-1,3,4-oxadiazol-2 (3H)-one]
10000 to 50000	20 to 100	Cc1ccc(F)c([C@@H](C)[C@@H](c2n[nH]c(=O)o2)N2CN(C)c3cc(O)ccc3S2(=O)=O)c1C [Example 66, 5-((1S,2R)-2-(6-fluoro-2,3-dimethylphenyl)-1-(6-hydroxy-4-methyl-1,1-dioxido-3,4-dihydro-2H-benzo[e][1,2,4]thiadiazin-2-yl)propyl)-1,3,4-oxadiazol-2 (3H)-one]
5000 to 10000	100 to 1000	Cc1ccc(F)c([C@@H](C)[C@@H](c2n[nH]c(=O)o2)N2CN(S(C)(=O)=O)c3cc(Cl)ccc3S2(=O)=O)c1C [Example 67, 5-((1S,2R)-1-(6-chloro-4-(methylsulfonyl)-1,1-dioxido-3,4-dihydro-2H-benzo[e][1,2,4]thiadiazin-2-yl)-2-(6-fluoro-2,3-dimethylphenyl)propyl)-1,3,4-oxadiazol-2 (3H)-one]
≤ 1000	20 to 100	Cc1ccc(F)c([C@@H](C)[C@@H](c2n[nH]c(=O)o2)N2CN(C)c3cc(Cl)cc(C(C)O)c3S2(=O)=O)c1C (stereo partly drawn) [Example 68, 5-((1S,2R)-1-(6-chloro-8-(1-hydroxyethyl)-4-methyl-1,1-dioxido-3,4-dihydro-2H-benzo[e][1,2,4]thiadiazin-2-yl)-2-(6-fluoro-2,3-dimethylphenyl)propyl)-1,3,4-oxadiazol-2 (3H)-one]
> 50000	1000 to 10000	COCc1cc2c(cc1Cl)OCCN([C@H](c1n[nH]c(=O)o1)[C@H](C)c1c(F)ccc(C)c1C)S2(=O)=O [Example 69, 5-((1S,2R)-1-(7-chloro-8-(methoxymethyl)-1,1-dioxido-3,4-dihydro-2H-benzo[b][,4,5]oxathiazepin-2-yl)-2-(6-fluoro-2,3-dimethylphenyl)propyl)-1,3,4-oxadiazol-2 (3H)-one]
1000 to 5000	20 to 100	COCc1cc(Cl)cc2c1S(=O)(=O)N([C@H](c1n[nH]c(=O)o1)[C@H](C)c1c(F)ccc(C)c1C)CN2C [Example 70, 5-((1S,2R)-1-(6-chloro-8-(methoxymethyl)-4-methyl-1,1-dioxido-3,4-dihydro-2H-benzo[e][1,2,4]thiadiazin-2-yl)-2-(6-fluoro-2,3-dimethylphenyl)propyl)-1,3,4-oxadiazol-2 (3H)-one]
≤ 1000	100 to 1000	COCc1cc(Cl)cc2c1S(=O)(=O)N([C@H](c1n[nH]c(=O)o1)[C@H](C)c1c(F)ccc(C)c1C)CCO2 [Example 71, 5-((1S,2R)-1-(7-chloro-9-(methoxymethyl)-1,1-dioxido-3,4-dihydro-2H-benzo[b][1,4,5]oxathiazepin-2-yl)-2-(6-fluoro-2,3-dimethylphenyl)propyl)-1,3,4-oxadiazol-2 (3H)-one]
≤ 1000	< 20	Cc1ccc(F)c([C@@H](C)[C@@H](c2n[nH]c(=O)o2)N2CN(C)c3cc(Cl)cc(CO)c3S2(=O)=O)c1C [Example 72, 5-((1S,2R)-1-(6-chloro-8-(hydroxymethyl)-4-methyl-1,1-dioxido-3,4-dihydro-2H-benzo[e][1,2,4]thiadiazin-2-yl)-2-(6-fluoro-2,3-dimethylphenyl)propyl)-1,3,4-oxadiazol-2 (3H)-one]
≤ 1000	< 20	Cc1ccc(F)c([C@@H](C)[C@@H](c2n[nH]c(=O)o2)N2CN(CCO)c3nc(Cl)ccc3S2(=O)=O)c1C [Example 73, 5-((1S,2R)-1-(6-chloro-4-(2-hydroxyethyl)-1,1-dioxido-3,4-dihydro-2H-pyrido[2,3-e][1,2,4]thiadiazin-2-yl)-2-(6-fluoro-2,3-dimethylphenyl)propyl)-1,3,4-oxadiazol-2 (3H)-one]
≤ 1000	< 20	Cc1ccc(F)c([C@@H](C)[C@@H](c2n[nH]c(=O)o2)N2CN([C@@H]3CCN(C)C3)c3cc(Cl)ccc3S2(=O)=O)c1C [Example 74, 5-((1S,2R)-1-(6-chloro-4-((R)-1-methylpyrrolidin-3-yl)-1,1-dioxido-3,4-dihydro-2H-benzo[e][1,2,4]thiadiazin-2-yl)-2-(6-fluoro-2,3-dimethylphenyl)propyl)-1,3,4-oxadiazol-2 (3H)-one]
1000 to 5000	< 20	Cc1ccc(F)c([C@@H](C)[C@@H](c2n[nH]c(=O)o2)N2CN(C)c3cc(Cl)cc(CBr)c3S2(=O)=O)c1C [Example 76, 5-((1S,2R)-1 (8-(bromomethyl)-6-chloro-4-methyl-1,1-dioxido-3,4-dihydro-2H-benzo[e][1,2,4]thiadiazin-2-yl)-2-(6-fluoro-2,3-dimethylphenyl)propyl)-1,3,4-oxadiazol-2 (3H)-one]
> 50000	100 to 1000	Cc1ccc(F)c([C@@H](C)[C@@H](c2n[nH]c(=O)o2)N2CCOc3cc(Cl)c(CO)cc3S2(=O)=O)c1C [Example 77, 5-((1S,2R)-1-(7-chloro-8-(hydroxymethyl)-1,1-dioxido-3,4-dihydro-2H-benzo[b][1,4,5]oxathiazepin-2-yl)-2-(6-fluoro-2,3-dimethylphenyl)propyl)-1,3,4-oxadiazol-2 (3H)-one]
≤ 1000	< 20	Cc1ccc(F)c([C@@H](C)[C@@H](c2n[nH]c(=O)o2)N2CCOc3cc(Cl)cc(CO)c3S2(=O)=O)c1C [Example 78, 5-((1S,2R)-1-(7-chloro-9-(hydroxymethyl)-1,1-dioxido-3,4-dihydro-2H-benzo[b][1,4,5]oxathiazepin-2-yl)-2-(6-fluoro-2,3-dimethylphenyl)propyl)-1,3,4-oxadiazol-2 (3H)-one]
≤ 1000	< 20	Cc1ccc(F)c([C@@H](C)[C@@H](c2n[nH]c(=O)o2)N2CN(CCCO)c3cc(Cl)ccc3S2(=O)=O)c1C [Example 79, 5-((1S,2R)-1-(6-chloro-4-(3-hydroxypropyl)-1,1-dioxido-3,4-dihydro-2H-benzo[e][1,2,4]thiadiazin-2-yl)-2-(6-fluoro-2,3-dimethylphenyl)propyl)-1,3,4-oxadiazol-2 (3H)-one]
≤ 1000	< 20	Cc1ccc(F)c([C@@H](C)[C@@H](c2n[nH]c(=O)o2)N2CN(CCN3CCCC3)c3cc(Cl)ccc3S2(=O)=O)c1C [Example 80, 5-((1S,2R)-1-(6-chloro-1,1-dioxido-4-(2-(pyrrolidin-1-yl)ethyl)-3,4-dihydro-2H-benzo[e][1,2,4]thiadiazin-2-yl)-2-(6-fluoro-2,3-dimethylphenyl)propyl)-1,3,4-oxadiazol-2 (3H)-one]
≤ 1000	< 20	Cc1ccc(F)c([C@@H](C)[C@@H](c2n[nH]c(=O)o2)N2CN(CC(F)F)c3nc(Cl)ccc3S2(=O)=O)c1C [Example 81, 5-[(1S,2R)-1-[6-chloro-4-(2,2-difluoroethyl)-1,1-dioxo-3H-pyrido[2,3-e][1,2,4]thiadiazin-2-yl]-2-(6-fluoro-2,3-dimethyl-phenyl)propyl]-3H-1,3,4-oxadiazol-2-one]

Source: patent publication US20260085067A1, “CYCLIC SULFONAMIDE RIBONUCLEOTIDE REDUCTASE (RNR) INHIBITORS AND USES THEREOF” (Boundless Bio, Inc., priority 2022, published 2026)
